Measured values as given in ChEMBL document CHEMBL3390836, “Mannich- and LedererManasse-based analogues of the natural product S-(+)-curcuphenol as cancer proliferation and migration inhibitors” (Medchemcomm, 2012).

Experiments:
Format in all cases: functional
SF-539 = test: Cytotoxicity against human SF539 cells assessed as cell growth at 10^-8 M after 48 hrs by SRB assay relative to control; conditions: SF-539, 48 h, read-out: Activity
NCI-H23 = test: Cytotoxicity against human NCI-H23 cells assessed as cell growth at 10^-7 M after 48 hrs by SRB assay relative to control; conditions: NCI-H23, 48 h, read-out: Activity
[1] = Cytotoxicity against human UACC62 cells assessed as cell growth at 10^-8 M after 48 hrs by SRB assay relative to control; conditions: UACC-62, 48 h, read-out: Activity
[2] = Cytotoxicity against human Hs 578T cells assessed as cell growth at 10^-8 M after 48 hrs by SRB assay relative to control; conditions: read-out: Activity
SNB-75 [3] = test: Cytotoxicity against human SNB75 cells assessed as cell growth at 10^-6 M after 48 hrs by SRB assay relative to control; conditions: SNB-75, 48 h, read-out: Activity
[4] = Cytotoxicity against human OVCAR3 cells assessed as cell growth at 10^-4 M after 48 hrs by SRB assay relative to control; conditions: OVCAR-3, 48 h, read-out: Activity
NCI-H226 = test: Cytotoxicity against human NCI-H226 cells after 48 hrs by SRB assay; conditions: NCI-H226, 48 h
U-251 = test: Cytotoxicity against human U251 cells after 48 hrs by SRB assay; conditions: U-251, 48 h
NCI-H522 [5] = test: Cytotoxicity against human NCI-H522 cells assessed as cell growth at 10^-4 M after 48 hrs by SRB assay relative to control; conditions: NCI-H522, 48 h, read-out: Activity
IGROV-1 = test: Cytotoxicity against human IGROV1 cells assessed as cell growth at 10^-8 M after 48 hrs by SRB assay relative to control; conditions: IGROV-1, 48 h, read-out: Activity
[6] = Cytotoxicity against human HCT116 cells assessed as cell growth at 10^-4 M after 48 hrs by SRB assay relative to control; conditions: HCT-116, 48 h, read-out: Activity
A498 = test: Cytotoxicity against human A498 cells assessed as cell growth at 10^-4 M after 48 hrs by SRB assay relative to control; conditions: A498, 48 h, read-out: Activity
SF-268 = test: Cytotoxicity against human SF268 cells assessed as cell growth at 10^-6 M after 48 hrs by SRB assay relative to control; conditions: SF-268, 48 h, read-out: Activity
MDA-MB-468 = test: Cytotoxicity against human MDA-MB-468 cells after 48 hrs by SRB assay; conditions: MDA-MB-468, 48 h
Malme-3M = test: Cytotoxicity against human MALME-3M cells assessed as cell growth at 10^-6 M after 48 hrs by SRB assay relative to control; conditions: read-out: Activity
MOLT-4 = test: Cytotoxicity against human MOLT4 cells assessed as cell growth at 10^-4 M after 48 hrs by SRB assay relative to control; conditions: MOLT-4, 48 h, read-out: Activity
SK-MEL-5 = test: Cytotoxicity against human SK-MEL-5 cells after 48 hrs by SRB assay; conditions: SK-MEL-5, 48 h
CCRF-CEM = test: Cytotoxicity against human CCRF-CEM cells after 48 hrs by SRB assay; conditions: read-out: LC50 (the source's name)
[7] = Cytotoxicity against human UO31 cells assessed as cell growth at 10^-7 M after 48 hrs by SRB assay relative to control; conditions: UO-31, 48 h, read-out: Activity
MCF7 = test: Cytotoxicity against human MCF7 cells assessed as cell growth at 10^-8 M after 48 hrs by SRB assay relative to control; conditions: MCF7, 48 h, read-out: Activity
[8] = Cytotoxicity against human OVCAR3 cells assessed as cell growth at 10^-7 M after 48 hrs by SRB assay relative to control; conditions: OVCAR-3, 48 h, read-out: Activity
SN12C [9] = test: Cytotoxicity against human SN12C cells assessed as cell growth at 10^-6 M after 48 hrs by SRB assay relative to control; conditions: read-out: Activity
CAKI-1 = test: Cytotoxicity against human Caki1 cells after 48 hrs by SRB assay; conditions: CAKI-1, 48 h; for CC50: read-out: LC50 (the source's name)
DU-145 = test: Cytotoxicity against human DU145 cells assessed as cell growth at 10^-6 M after 48 hrs by SRB assay relative to control; conditions: DU-145, 48 h, read-out: Activity
SN12C [10] = test: Cytotoxicity against human SN12C cells assessed as cell growth at 10^-7 M after 48 hrs by SRB assay relative to control; conditions: read-out: Activity
NCI-H522 [11] = test: Cytotoxicity against human NCI-H522 cells assessed as cell growth at 10^-7 M after 48 hrs by SRB assay relative to control; conditions: NCI-H522, 48 h, read-out: Activity
TK-10 = test: Cytotoxicity against human TK10 cells assessed as cell growth at 10^-7 M after 48 hrs by SRB assay relative to control; conditions: TK-10, 48 h, read-out: Activity
[12] = Cytotoxicity against human SKOV3 cells after 48 hrs by SRB assay; conditions: SK-OV-3, 48 h
HOP-62 = test: Cytotoxicity against human HOP62 cells assessed as cell growth at 10^-8 M after 48 hrs by SRB assay relative to control; conditions: HOP-62, 48 h, read-out: Activity
NCI-H460 = test: Cytotoxicity against human NCI-H460 cells assessed as cell growth at 10^-8 M after 48 hrs by SRB assay relative to control; conditions: NCI-H460, 48 h, read-out: Activity
SNB-75 [13] = test: Cytotoxicity against human SNB75 cells after 48 hrs by SRB assay; conditions: SNB-75, 48 h
[14] = Cytotoxicity against human UACC62 cells assessed as cell growth at 10^-6 M after 48 hrs by SRB assay relative to control; conditions: UACC-62, 48 h, read-out: Activity
LOX IMVI = test: Cytotoxicity against human LOXIMVI cells assessed as cell growth at 10^-6 M after 48 hrs by SRB assay relative to control; conditions: read-out: Activity
RPMI-8226 [15] = test: Cytotoxicity against human RPMI8226 cells assessed as cell growth at 10^-6 M after 48 hrs by SRB assay relative to control; conditions: RPMI-8226, 48 h, read-out: Activity
M14 = test: Cytotoxicity against human M14 cells assessed as cell growth at 10^-4 M after 48 hrs by SRB assay relative to control; conditions: M14, 48 h, read-out: Activity
RPMI-8226 [16] = test: Cytotoxicity against human RPMI8226 cells assessed as cell growth at 10^-7 M after 48 hrs by SRB assay relative to control; conditions: RPMI-8226, 48 h, read-out: Activity

CC(C)=CCC[C@H](C)c1ccc(C)c(CNCC2CCNCC2)c1O
growth at 0.01 µM (SF-539): 96%
growth at 0.1 µM (NCI-H23): 94%
growth at 0.01 µM [1]: 97%
growth at 0.01 µM [2]: 94%
growth at 1 µM (SNB-75 [3]): 89%
growth at 100 µM [4]: 3%
GI50 (NCI-H226): 10.4 µM
LC50 (NCI-H226): > 25 µM
TGI (NCI-H226): > 25 µM
GI50 (U-251): 3.72 µM
LC50 (U-251): 15.9 µM
TGI (U-251): 7.69 µM
growth at 100 µM (NCI-H522 [5]): 9%
growth at 0.01 µM (IGROV-1): 102%
growth at 100 µM [6]: -39%
growth at 100 µM (A498): 43%
growth at 1 µM (SF-268): 92%
GI50 (MDA-MB-468): 3.33 µM
LC50 (MDA-MB-468): 14.1 µM
TGI (MDA-MB-468): 6.86 µM
growth at 1 µM (Malme-3M): 84%
growth at 100 µM (MOLT-4): -22%
GI50 (SK-MEL-5): 3.41 µM
LC50 (SK-MEL-5): 12.9 µM
TGI (SK-MEL-5): 6.63 µM
CC50 (CCRF-CEM): 1.64 µM
growth at 0.1 µM [7]: 86%
growth at 0.01 µM (MCF7): 90%
growth at 0.1 µM [8]: 104%
growth at 1 µM (SN12C [9]): 93%
GI50 (CAKI-1): 4.62 µM
TGI (CAKI-1): 13.4 µM
CC50 (CAKI-1): > 25 µM
growth at 1 µM (DU-145): 100%
growth at 0.1 µM (SN12C [10]): 91%
growth at 0.1 µM (NCI-H522 [11]): 96%
growth at 0.1 µM (TK-10): 92%
GI50 [12]: 6.82 µM
LC50 (concentration killing 50% of cells) [12]: > 25 µM
TGI [12]: > 25 µM
growth at 0.01 µM (HOP-62): 96%
growth at 0.01 µM (NCI-H460): 101%
GI50 (SNB-75 [13]): 3.89 µM
LC50 (SNB-75 [13]): > 25 µM
TGI (SNB-75 [13]): 12.3 µM
growth at 1 µM [14]: 86%
growth at 1 µM (LOX IMVI): 98%

COc1ccc(CCN2COc3c([C@@H](C)CCC=C(C)C)ccc(C)c3C2)cc1OC
growth at 1 µM (RPMI-8226 [15]): 78%
growth at 0.01 µM (SF-539): 95%
growth at 0.1 µM (NCI-H23): 107%
growth at 0.01 µM [1]: 95%
growth at 0.01 µM [2]: 78%
growth at 1 µM (SNB-75 [3]): 86%
growth at 100 µM [4]: -94%
GI50 (NCI-H226): 8.64 µM
LC50 (NCI-H226): 49.1 µM
TGI (NCI-H226): 21.6 µM
GI50 (U-251): 1.91 µM
LC50 (U-251): 11.2 µM
TGI (U-251): 4.47 µM
growth at 0.01 µM (IGROV-1): 119%
growth at 100 µM [6]: -100%
growth at 100 µM (A498): -93%
growth at 1 µM (SF-268): 67%
GI50 (MDA-MB-468): 1.23 µM
LC50 (MDA-MB-468): 7.08 µM
TGI (MDA-MB-468): 9.95 µM
growth at 1 µM (Malme-3M): 79%
growth at 100 µM (M14): -100%
GI50 (SK-MEL-5): 1.64 µM
LC50 (SK-MEL-5): 5.66 µM
TGI (SK-MEL-5): 3.04 µM
CC50 (CCRF-CEM): > 100 µM
growth at 0.1 µM [7]: 92%
growth at 0.01 µM (MCF7): 91%
growth at 0.1 µM (RPMI-8226 [16]): 93%
growth at 0.1 µM [8]: 91%
growth at 1 µM (SN12C [9]): 87%
GI50 (CAKI-1): 2.73 µM
TGI (CAKI-1): 12.1 µM
CC50 (CAKI-1): 41.3 µM
growth at 0.1 µM (SN12C [10]): 89%
growth at 0.1 µM (TK-10): 79%
GI50 [12]: 11.8 µM
LC50 (concentration killing 50% of cells) [12]: 81.8 µM
TGI [12]: 31.1 µM
growth at 0.01 µM (HOP-62): 101%
growth at 0.01 µM (NCI-H460): 101%
GI50 (SNB-75 [13]): 12.5 µM
LC50 (SNB-75 [13]): > 100 µM
TGI (SNB-75 [13]): 35.4 µM
growth at 1 µM [14]: 86%
growth at 1 µM (LOX IMVI): 88%

CC(C)=CCC[C@H](C)c1ccc(C)c2c1OCN(CC1CCNCC1)C2
growth at 1 µM (RPMI-8226 [15]): 110%
growth at 0.01 µM (SF-539): 91%
growth at 0.1 µM (NCI-H23): 94%
growth at 0.01 µM [1]: 95%
growth at 0.01 µM [2]: 98%
growth at 1 µM (SNB-75 [3]): 85%
growth at 100 µM [4]: -84%
GI50 (NCI-H226): 17.7 µM
LC50 (NCI-H226): 64.5 µM
TGI (NCI-H226): 33.8 µM
GI50 (U-251): 2.75 µM
LC50 (U-251): 31.6 µM
TGI (U-251): 7.61 µM
growth at 100 µM (NCI-H522 [5]): -84%
growth at 0.01 µM (IGROV-1): 101%
growth at 100 µM [6]: -80%
growth at 100 µM (A498): -90%
growth at 1 µM (SF-268): 102%
GI50 (MDA-MB-468): 5.01 µM
LC50 (MDA-MB-468): 53.1 µM
TGI (MDA-MB-468): 18.4 µM
growth at 1 µM (Malme-3M): 95%
growth at 100 µM (M14): -80%
growth at 100 µM (MOLT-4): -39%
GI50 (SK-MEL-5): 4.97 µM
LC50 (SK-MEL-5): 49.8 µM
TGI (SK-MEL-5): 18.3 µM
growth at 0.1 µM [7]: 94%
growth at 0.01 µM (MCF7): 98%
growth at 0.1 µM (RPMI-8226 [16]): 102%
growth at 0.1 µM [8]: 105%
growth at 1 µM (SN12C [9]): 102%
GI50 (CAKI-1): 17.7 µM
TGI (CAKI-1): 36.8 µM
CC50 (CAKI-1): 76.3 µM
growth at 1 µM (DU-145): 102%
growth at 0.1 µM (SN12C [10]): 102%
growth at 0.1 µM (NCI-H522 [11]): 88%
growth at 0.1 µM (TK-10): 113%
GI50 [12]: 16.7 µM
LC50 (concentration killing 50% of cells) [12]: 57.8 µM
TGI [12]: 31.1 µM
growth at 0.01 µM (HOP-62): 104%
growth at 0.01 µM (NCI-H460): 108%
GI50 (SNB-75 [13]): 11.9 µM
LC50 (SNB-75 [13]): 49.6 µM
TGI (SNB-75 [13]): 24.3 µM
growth at 1 µM [14]: 101%
growth at 1 µM (LOX IMVI): 99%
